Experimental data taken from paper PMC9370035, “Identification of 3-Oxindole Derivatives as Small Molecule HIV-1 Inhibitors Targeting Tat-Mediated Viral Transcription” (Molecules, 2022).

How the values were obtained:
HIV-1NL4-3 [1] = assay: HIV-1 replication assay (p24 […]) in A3.01 T cell line; format: cell-based; conditions: A3.01 cells, HIV-1NL4-3 MOI 0.1, 1.5 μM, 72 h
Experimental: (§1) TZM-bl cells (also referred as JC53BL-13) expressing human CD4, CXCR4, and CCR5 in order to facilitate HIV-1 infection, which contain the firefly luciferase (F-Luc) gene under the control of HIV-1 long terminal repeat (LTR) promoter was used to determine inhibitory effect of the compounds on HIV-1 infection, as described previously with minor modifications. In brief, 1 × 10^4 cells were cultured in 96-well plates for 24 h and then treated with compounds at a final concentration of 3 μM (Figure 1A) or with 1:2 serially diluted compounds at concentrations ranging from 0 to 25 μM (dose-response assay; Figure 1B and Table 2). Without replacement of a culture medium, the cells were then infected with the HIV-1NL4-3 strain at a multiplicity of infection (MOI) of 1 to determine the exact inhibitory effect of compounds on a single round infection. After 48 h, the inhibitory effect of the compounds was determined using a Bright Glo luciferase assay kit (Promega). The infectivity data are presented as a percentage relative to the DMSO control (vehicle). The inhibitory effects of the compounds on viral replication were determined with some minor modifications, as described previously. In brief, 5 × 10^4 cells/ well of A3.01 cells were infected with HIV-1NL4-3 at an MOI of 0.1 with the spinoculation at 300 g for 2 h at 25 °C. PBMCs were pre-activated with phytohemagglutinin M (PHA-M) for 3 days. The pre-activated 4 × 10^5 of PBMCs were washed with fresh media to remove excess PHA-M and then infected with HIV-1NL4-3 or HIV-1AD8 as that of A3.01 infection. After infection, the infectious media were replaced with fresh media (supplemented with international 10 units (IU)/mL of IL-2 for PBMCs containing 1.5 μM of compounds. At 72 h after infection, the inhibitory effect of the compounds on viral replication was determined by measuring the amount of p24, an HIV capsid protein, using an HIV-1 p24 […]™ kit (PerkinElmer, Waltham, MA, USA). Cell viability was determined by using the resazurin-based PrestoBlue™ cell viability reagent (Thermo Fisher Scientific, Waltham, MA, USA) according to the manufacturer’s protocols.

[2] = Cell viability (resazurin-based PrestoBlue) in parallel with infectivity assay; conditions: human, TZM-bl cells; for viability at 48 h, 3 µM: with infection of HIV-1 NL4-3 at MOI of 1; for CC50 at 48 h: serial dilution starting from 100 μM, read-out: CC50 (concentration that reduces cell viability by 50%)
HIV-1Ad8 = assay: HIV-1 replication assay (p24 […]) in PBMCs, CCR5 tropic strain; format: cell-based; conditions: CCR5 tropic HIV-1Ad8 MOI 0.1, 1.5 μM, 72 h
Experimental: TZM-bl cells (also referred as JC53BL-13) expressing human CD4, CXCR4, and CCR5 in order to facilitate HIV-1 infection, which contain the firefly luciferase (F-Luc) gene under the control of HIV-1 long terminal repeat (LTR) promoter was used to determine inhibitory effect of the compounds on HIV-1 infection, as described previously with minor modifications. In brief, 1 × 10^4 cells were cultured in 96-well plates for 24 h and then treated with compounds at a final concentration of 3 μM (Figure 1A) or with 1:2 serially diluted compounds at concentrations ranging from 0 to 25 μM (dose-response assay; Figure 1B and Table 2). Without replacement of a culture medium, the cells were then infected with the HIV-1NL4-3 strain at a multiplicity of infection (MOI) of 1 to determine the exact inhibitory effect of compounds on a single round infection. After 48 h, the inhibitory effect of the compounds was determined using a Bright Glo luciferase assay kit (Promega). The infectivity data are presented as a percentage relative to the DMSO control (vehicle). The inhibitory effects of the compounds on viral replication were determined with some minor modifications, as described previously. In brief, 5 × 10^4 cells/ well of A3.01 cells were infected with HIV-1NL4-3 at an MOI of 0.1 with the spinoculation at 300 g for 2 h at 25 °C. PBMCs were pre-activated with phytohemagglutinin M (PHA-M) for 3 days. […]

[3] = test system: Tat-mediated HIV-1 transcription; assay: microbe, parasite or virus in culture; format: cell-based; conditions: for IC50: Human immunodeficiency virus 1, 24 h, read-out: IC50 (inhibition of Tat-mediated HIV-1 transcription)
Experimental: (§2) bl-DTR (TZM-bl-derived dual Tat reporter) cells derived from TZM-bl cells by insertion of two doxycycline-inducible lentiviral vector-expressing flag-tagged tat and Renilla-luciferase (R-Luc) genes were used to determine simultaneously both activities of Tat-mediated HIV-1 transcription and general cellular transcription, as described previously. Determination of the inhibitory effect of the compounds on Tat-mediated transcription was performed as described previously. In brief, 1 × 10^4 of bl-DTR cells cultured in 96-well plates were treated with compounds at a final concentration of 3 μM (Figure 3C) or with 1:2 serially diluted compounds at concentrations ranging from 0 to 25 μM (Figure 4 and Table 3). Subsequently, doxycycline was treated at a final concentration of 50 ng/mL to induce Tat-mediated F-Luc and R-Luc. At 24 h after treatment, the activities of F-Luc and R-Luc were determined by using a Dual-Glo™ luciferase assay system (Promega, Madison, WI, USA) according to the manufacturer’s protocols. The data are presented as a percentage relative to the DMSO control (vehicle) in the presence of doxycycline, and the experiment was performed in triplicate.

Tat with TAR RNA = Tat with TAR RNA (Human immunodeficiency virus type 1 group M subtype B, UniProt P04608); assay: Association of Tat with TAR RNA; set-up: species or system HIV-1; conditions: manuscript in preparation [26]
[4] = test system: general cellular transcription; assay: R-Luc activity in bl-DTR cells (general cellular transcription); format: cell-based; conditions: high dosages (12.5 μM and 25 μM)
Experimental: as §2

Tat protein = assay: Cellular expression level of Tat protein; format: cell-based, HIV-1; conditions: manuscript in preparation [26]
HIV-1NL4-3 [5] = assay: HIV-1 infectivity assay in TZM-bl cells (F-Luc under HIV-1 LTR); format: cell-based; conditions: Human immunodeficiency virus 1, NL43, TZM-bl; for inhibition at 3 µM: 48 h, read-out: Inhibition of HIV-1 Infectivity (%), TZM-bl cells, 3 μM, HIV-1 NL4-3 at MOI of 1, 48 h; for IC50: read-out: IC50 (inhibition of HIV-1 infection)
Source text: TZM-bl cells (also referred as JC53BL-13) expressing human CD4, CXCR4, and CCR5 in order to facilitate HIV-1 infection, which contain the firefly luciferase (F-Luc) gene under the control of HIV-1 long terminal repeat (LTR) promoter was used to determine inhibitory effect of the compounds on HIV-1 infection, as described previously with minor modifications. […] Without replacement of a culture medium, the cells were then infected with the HIV-1NL4-3 strain at a multiplicity of infection (MOI) of 1 to determine the exact inhibitory effect of compounds on a single round infection. After 48 h, the inhibitory effect of the compounds was determined using a Bright Glo luciferase assay kit (Promega). The infectivity data are presented as a percentage relative to the DMSO control (vehicle). The inhibitory effects of the compounds on viral replication were determined with some minor modifications, as described previously. […] PBMCs were pre-activated with phytohemagglutinin M (PHA-M) for 3 days. The pre-activated 4 × 10^5 of PBMCs were washed with fresh media to remove excess PHA-M and then infected with HIV-1NL4-3 or HIV-1AD8 as that of A3.01 infection.

Tat = assay: Nuclear localization of Tat; format: cell-based, HIV-1; conditions: manuscript in preparation [26]
Tat and cyclin T1 = Tat and cyclin T1 (Human immunodeficiency virus type 1 group M subtype B, UniProt P04608); assay: Interaction between Tat and cyclin T1; conditions: manuscript in preparation [26]
HIV-1NL4-3 [6] = assay: HIV-1 replication assay (p24 […]) in PBMCs, CXCR4 tropic strain; format: cell-based; conditions: HIV-1NL4-3 MOI 0.1, 1.5 μM, 72 h
Experimental: as §1

TZM-bl cells = assay: Cell viability (resazurin-based PrestoBlue) in parallel with infectivity assay; conditions: 3 μM, with infection of HIV-1 NL4-3 at MOI of 1
[7] = target: HIV-1 reverse transcriptase (RTase) (Human immunodeficiency virus type 1 group M subtype B, UniProt P12497); conditions: A3.01 cells, 10 μM, HIV-1NL4-3, 16 h after infection
Source text: (forward) and 5′-[…] (reverse). […] (forward) and 5′-[…] (reverse).

Chain of Tat with TAR RNA (P04608 whole entry): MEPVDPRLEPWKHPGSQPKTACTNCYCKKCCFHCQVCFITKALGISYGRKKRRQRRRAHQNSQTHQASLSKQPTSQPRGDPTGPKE
Chain of Tat and cyclin T1 (P04608 whole entry): as above

Row | Compound | Inhibitory effect on viral replication (p24) (HIV-1NL4-3 [1]) | viability at 48 h, 3 µM [2] [%] | CC50 at 48 h [2] [nM] | Inhibitory effect on viral replication (p24) (HIV-1Ad8) | IC50 [3] [nM] | Inhibition of association of Tat with TAR RNA (Tat with TAR RNA) | R-Luc activity [4] | melting point [°C] | Inhibition of cellular expression level of Tat protein (Tat protein) | inhibition at 3 µM (HIV-1NL4-3 [5]) [%] | IC50 (HIV-1NL4-3 [5]) [nM] | Inhibition of nuclear localization of Tat (Tat) | Inhibition of interaction between Tat and cyclin T1 (Tat and cyclin T1) | Inhibitory effect on viral replication (p24) (HIV-1NL4-3 [6]) | Cell Viability (%) (TZM-bl cells) | Concentration of complete inhibition of Tat-induced transcriptional activity ([3]; bl-DTR cells, concentration response) | Inhibition of RTase activity (level of HIV-1 RT product) [7]
1 | COC(=O)C1(CC=C(Cl)Cl)Nc2cc(C)cc(C)c2C1=O (centres unmarked) [Compound 6g, Methyl 2-(3,3-dichloroallyl)-4,6-dimethyl-3-oxindole-2-carboxylate] | half inhibition | 87.9 ± 0.82 | 43600 ± 10500 | inhibited replication | 2850 ± 630 | did not inhibit | decrease in R-Luc activity | > 300 | did not inhibit | 85.4 ± 1.44 | 1280 ± 959 | did not inhibit | did not inhibit | half inhibition | – | – | –
2 | COC(=O)C1(C/C=C/Cl)Nc2cc(C)cc(C)c2C1=O (centres unmarked) [Compound 6f, Methyl (E)-2-(3-chloroallyl)-4,6-dimethyl-3-oxindole-2-carboxylate] | near-complete abrogation | 93 ± 5.39 | 51000 ± 4440 | inhibited replication | 1200 ± 40 | did not inhibit | – | > 300 | did not inhibit | 91.9 ± 1.78 | 458 ± 22.7 | did not inhibit | did not inhibit | near-complete abrogation | without cytotoxicity | approximately 6 μM | –
3 | O=C1Nc2ccc(Cl)cc2[C@@](C#CC2CC2)(C(F)(F)F)O1 [EFV, efavirenz, reference compound] | – | – | 34200 ± 590 | – | – | – | – | – | – | – | < 50 | – | – | – | – | – | inhibited
